In ChEMBL document CHEMBL1201862, “PubChem BioAssay data set” (2004):
Active and inactive are the calls of the source.

Tests used:
[1] = Luminescence Cell-Based Dose Retest to Confirm Inhibitors of Cancer Stem Cells. [Related pubchem assays (depositor defined):AID2717, AID2721]; format: functional; conditions: Homo sapiens
[2] = target: Heat shock protein HSP 90-alpha (Homo sapiens, UniProt P07900); format: functional, organism-based
[3] = target: T1, Histone-lysine N-methyltransferase NSD2 (Homo sapiens, UniProt O96028); format: biochemical
T1 sequence (O96028 whole entry): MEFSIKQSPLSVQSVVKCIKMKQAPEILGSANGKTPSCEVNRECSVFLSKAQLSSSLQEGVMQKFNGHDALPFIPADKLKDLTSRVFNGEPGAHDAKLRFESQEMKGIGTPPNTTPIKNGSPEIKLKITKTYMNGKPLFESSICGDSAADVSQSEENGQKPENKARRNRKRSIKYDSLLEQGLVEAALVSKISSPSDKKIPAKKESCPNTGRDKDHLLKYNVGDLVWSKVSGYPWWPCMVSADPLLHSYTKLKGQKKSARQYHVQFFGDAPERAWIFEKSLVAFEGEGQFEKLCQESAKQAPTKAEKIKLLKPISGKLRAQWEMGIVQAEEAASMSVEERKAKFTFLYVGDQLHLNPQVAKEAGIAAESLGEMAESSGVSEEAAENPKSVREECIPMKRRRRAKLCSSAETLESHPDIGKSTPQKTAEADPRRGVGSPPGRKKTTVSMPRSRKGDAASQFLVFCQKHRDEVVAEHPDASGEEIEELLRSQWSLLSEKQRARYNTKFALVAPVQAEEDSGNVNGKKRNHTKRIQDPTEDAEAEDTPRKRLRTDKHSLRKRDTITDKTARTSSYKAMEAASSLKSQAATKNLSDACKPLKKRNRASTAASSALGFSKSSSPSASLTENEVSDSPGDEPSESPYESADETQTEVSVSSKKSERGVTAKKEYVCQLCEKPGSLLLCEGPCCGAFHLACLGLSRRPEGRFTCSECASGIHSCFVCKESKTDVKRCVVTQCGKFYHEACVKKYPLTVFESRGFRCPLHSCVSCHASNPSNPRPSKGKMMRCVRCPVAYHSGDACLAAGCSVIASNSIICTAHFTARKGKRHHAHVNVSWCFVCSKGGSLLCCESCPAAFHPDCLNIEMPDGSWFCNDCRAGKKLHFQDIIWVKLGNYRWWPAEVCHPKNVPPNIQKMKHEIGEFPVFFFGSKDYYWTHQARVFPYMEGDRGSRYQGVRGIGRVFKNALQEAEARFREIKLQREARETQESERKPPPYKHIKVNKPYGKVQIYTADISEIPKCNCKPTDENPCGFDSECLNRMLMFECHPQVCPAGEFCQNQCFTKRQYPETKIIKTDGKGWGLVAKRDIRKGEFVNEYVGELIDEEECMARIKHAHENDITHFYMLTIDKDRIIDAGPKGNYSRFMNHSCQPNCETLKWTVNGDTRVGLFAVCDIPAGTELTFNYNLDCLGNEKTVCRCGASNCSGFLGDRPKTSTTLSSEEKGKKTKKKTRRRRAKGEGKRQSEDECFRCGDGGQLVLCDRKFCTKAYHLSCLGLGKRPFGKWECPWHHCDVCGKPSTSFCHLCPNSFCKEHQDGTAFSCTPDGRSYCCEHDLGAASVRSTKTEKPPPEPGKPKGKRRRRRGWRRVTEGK

[4] = target: T2, Polyadenylate-binding protein 1 (Homo sapiens, UniProt P11940); assay: PABP1 MLLE–PAM2 binding inhibitor potency, dose response, biochemical, fluorescence polarization, FITC-PAM2 peptide (AID 602259); format: functional; conditions: read-out: IC50_Mean
T2 sequence (P11940 whole entry): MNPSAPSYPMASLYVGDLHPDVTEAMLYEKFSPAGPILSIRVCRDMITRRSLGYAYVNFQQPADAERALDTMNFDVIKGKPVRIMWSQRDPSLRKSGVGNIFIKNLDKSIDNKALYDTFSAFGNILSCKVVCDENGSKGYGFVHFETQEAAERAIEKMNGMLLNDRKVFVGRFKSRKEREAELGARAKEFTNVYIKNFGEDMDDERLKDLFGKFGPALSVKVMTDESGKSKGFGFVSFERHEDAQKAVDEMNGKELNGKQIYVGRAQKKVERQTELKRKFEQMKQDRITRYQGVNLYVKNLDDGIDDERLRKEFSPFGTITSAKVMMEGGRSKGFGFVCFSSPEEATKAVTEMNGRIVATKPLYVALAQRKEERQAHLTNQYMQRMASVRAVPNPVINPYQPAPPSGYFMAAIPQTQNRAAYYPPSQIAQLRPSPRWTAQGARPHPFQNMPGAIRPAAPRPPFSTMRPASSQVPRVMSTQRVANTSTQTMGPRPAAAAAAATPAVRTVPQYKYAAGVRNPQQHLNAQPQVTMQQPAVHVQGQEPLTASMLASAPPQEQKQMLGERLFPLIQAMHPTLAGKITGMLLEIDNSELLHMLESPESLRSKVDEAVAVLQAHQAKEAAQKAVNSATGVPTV

[5] = target: T2, Polyadenylate-binding protein 1; assay: PABP1 MLLE–PAM2 interaction inhibitors, dose response, miRNA deadenylation inhibitor project, biochemical, fluorescence polarization, Cy5-PAM2 peptide, secondary (AID 602260); format: functional; conditions: read-out: IC50_Mean
[6] = inhibitors of Vif binding to APOBEC3G peptide, primary screen, biochemical, TR-FRET, GST-Vif 1-94, biotin-A3G peptide, dose response retest (AID 1117319); format: functional;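 note: TR-FRET signal of purified GST-Vif binding a biotinylated A3G peptide; inhibitors lower the FRET signal by blocking Vif and A3G binding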
[7] = Shn3 3'UTR reporter inhibitors, dose response, cell-based, Clone20 osteoblasts, firefly luciferase, cherry-picked (AID 624132); format: functional;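 note: firefly luciferase luminescence from reporter carrying the Shn3 3'UTR in osteoblasts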
[8] = inhibitors of SNCA 5'UTR-driven reporter translation, confirmation, H4 neuroglioma cells, luminescence (AID 1988); format: functional, cell-based
cells [9] = format: functional, cell-based
Streptococcus = assay: Group A Streptococcus viability loss, dose response, counter-screen for streptokinase expression inhibitor project, luminescence, BacTiterGlo (AID 1915); format: functional, organism-based;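 note: potency for reduction of bacterial viability or growth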
cells [10] = format: functional, cell-based; remark: listed apart in the source
[11] = C. albicans growth with fluconazole, confirmation, fluorescence, retest (AID 2467); format: functional, cell-based
[12] = Luminescence Cell-Based Dose Response HTS to Identify Inhibitors of 5'UTR Stem-Loop Driven Prion Protein mRNA Translation in H4 Neuroglioblastoma Cells. [Related pubchem assays: 1827 (Project Summary), 1813 (Primary HTS)]; format: functional
[13] = NIH-3T3 fibroblast cytotoxicity, dose response, cytotoxicity control, cell-based, fluorescence, Alamar Blue, secondary assay (AID 2327); format: functional;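 note: NIH-3T3 mouse fibroblasts cultured with fluconazole at 8 µg/mL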
HEK293 = assay: inhibitors of LMP1-driven NF-kB reporter, dose response, cell-based, HEK293, luciferase, cherry-pick (AID 588343); format: functional; conditions: Homo sapiens
[14] = test system: Streptococcus sp. 'group A'; assay: growth inhibition of control SK(-) GAS strain, dose response, counter-screen for streptokinase expression inhibitor project, luminescence, kanamycin, BacTiterGlo, confirmation (AID 1900); format: functional, organism-based
[15] = target: T3, Rac GTPase-activating protein 1 (Homo sapiens, UniProt Q9H0H5); assay: MgcRacGAP GTPase-activating activity inhibitors, confirmation, biochemical, ADP Hunter fluorescence, primary and confirmatory (AID 624330); format: functional
T3 sequence (Q9H0H5 whole entry): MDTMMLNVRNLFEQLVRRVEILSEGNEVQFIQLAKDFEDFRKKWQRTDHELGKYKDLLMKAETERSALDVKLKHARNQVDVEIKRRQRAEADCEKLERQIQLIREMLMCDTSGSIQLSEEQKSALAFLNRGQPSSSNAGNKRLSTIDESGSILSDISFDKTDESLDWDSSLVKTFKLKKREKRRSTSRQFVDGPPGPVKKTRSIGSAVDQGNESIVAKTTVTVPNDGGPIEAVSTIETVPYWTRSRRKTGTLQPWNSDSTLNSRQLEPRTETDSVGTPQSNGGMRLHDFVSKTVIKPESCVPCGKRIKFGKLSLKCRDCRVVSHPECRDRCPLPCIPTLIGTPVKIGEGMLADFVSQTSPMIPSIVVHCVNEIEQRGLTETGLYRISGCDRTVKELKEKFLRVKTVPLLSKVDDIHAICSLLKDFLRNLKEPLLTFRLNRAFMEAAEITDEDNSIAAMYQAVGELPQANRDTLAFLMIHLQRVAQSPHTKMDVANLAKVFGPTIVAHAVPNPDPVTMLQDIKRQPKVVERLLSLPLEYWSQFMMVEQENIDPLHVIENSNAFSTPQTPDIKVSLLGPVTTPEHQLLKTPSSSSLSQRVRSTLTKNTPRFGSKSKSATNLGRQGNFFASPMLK

[16] = target: T4, DNA repair protein RAD52 homolog (Homo sapiens, UniProt P43351); format: functional, biochemical
T4 sequence (P43351 whole entry): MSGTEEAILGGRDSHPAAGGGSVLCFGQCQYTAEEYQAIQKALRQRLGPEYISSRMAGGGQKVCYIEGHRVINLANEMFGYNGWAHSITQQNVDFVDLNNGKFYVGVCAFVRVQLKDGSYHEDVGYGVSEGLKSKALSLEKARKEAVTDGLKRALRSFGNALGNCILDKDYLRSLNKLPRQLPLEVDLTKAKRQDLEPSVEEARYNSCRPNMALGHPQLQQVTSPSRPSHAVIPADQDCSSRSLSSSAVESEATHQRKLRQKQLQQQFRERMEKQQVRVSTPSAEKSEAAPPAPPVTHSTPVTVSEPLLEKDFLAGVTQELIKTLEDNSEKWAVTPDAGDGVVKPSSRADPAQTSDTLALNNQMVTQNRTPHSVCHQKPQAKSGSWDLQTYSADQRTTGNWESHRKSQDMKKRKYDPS

Large T antigen = Large T antigen (Simian virus 40, UniProt P03070); format: functional, Betapolyomavirus macacae;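 note: Confirmatory-stage PubChem screen for compounds that inhibit SV40 T antigen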
Large T antigen, sequence (P03070 whole entry): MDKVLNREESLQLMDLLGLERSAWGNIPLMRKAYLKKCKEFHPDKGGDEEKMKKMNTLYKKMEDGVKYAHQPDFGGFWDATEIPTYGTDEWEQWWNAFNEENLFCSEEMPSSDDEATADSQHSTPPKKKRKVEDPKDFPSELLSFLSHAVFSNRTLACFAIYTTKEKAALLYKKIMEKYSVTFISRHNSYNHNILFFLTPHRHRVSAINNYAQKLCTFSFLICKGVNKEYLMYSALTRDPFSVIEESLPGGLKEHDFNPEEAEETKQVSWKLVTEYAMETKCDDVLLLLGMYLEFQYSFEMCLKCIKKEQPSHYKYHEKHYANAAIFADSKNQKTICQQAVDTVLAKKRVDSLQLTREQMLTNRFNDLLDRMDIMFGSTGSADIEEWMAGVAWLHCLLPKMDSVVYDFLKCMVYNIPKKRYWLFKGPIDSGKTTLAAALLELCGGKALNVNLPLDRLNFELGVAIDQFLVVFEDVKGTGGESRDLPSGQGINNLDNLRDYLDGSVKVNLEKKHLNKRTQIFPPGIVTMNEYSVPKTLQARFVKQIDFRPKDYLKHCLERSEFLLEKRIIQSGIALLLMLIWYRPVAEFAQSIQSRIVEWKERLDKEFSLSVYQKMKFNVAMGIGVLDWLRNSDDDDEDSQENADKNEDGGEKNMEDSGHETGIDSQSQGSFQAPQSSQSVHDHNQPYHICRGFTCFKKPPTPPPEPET

[17] = target: T5, Heat shock factor protein 1 (Mus musculus, UniProt P38532); assay: inhibition of MG132-induced HSE-luciferase signal, confirmation, cell-based, NIH3T3, luminescence, dose retest (AID 2382); format: functional;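 note: NIH3T3 fibroblasts with HSF1-driven luciferase reporter stressed by proteasome inhibitor MG132; luminescence from HSF1-driven luciferase expression after 8 hours of MG132 stress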
T5 sequence (P38532 whole entry): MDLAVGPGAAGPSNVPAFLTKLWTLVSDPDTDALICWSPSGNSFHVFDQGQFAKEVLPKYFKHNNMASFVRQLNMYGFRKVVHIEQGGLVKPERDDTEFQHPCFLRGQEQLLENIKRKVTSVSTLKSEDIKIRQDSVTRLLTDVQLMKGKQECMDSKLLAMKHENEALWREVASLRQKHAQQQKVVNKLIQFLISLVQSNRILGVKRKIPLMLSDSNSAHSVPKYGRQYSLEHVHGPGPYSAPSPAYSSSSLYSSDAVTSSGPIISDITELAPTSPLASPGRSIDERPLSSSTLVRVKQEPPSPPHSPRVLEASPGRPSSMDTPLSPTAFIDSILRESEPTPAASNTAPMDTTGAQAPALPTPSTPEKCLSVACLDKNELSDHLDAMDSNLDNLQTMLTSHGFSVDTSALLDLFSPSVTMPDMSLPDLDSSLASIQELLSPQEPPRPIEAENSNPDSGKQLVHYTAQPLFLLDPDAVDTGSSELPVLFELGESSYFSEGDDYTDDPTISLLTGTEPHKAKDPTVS

[18] = target: T6, RNA-binding protein pos-1 (Caenorhabditis elegans, UniProt G5EF15); assay: inhibitors of POS-1/mex-3 RNA binding, dose response, biochemical, fluorescence polarization (AID 1964);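 note: purified POS-1 fused to maltose binding protein made in E. coli; potency of compounds blocking POS-1 binding to fluorescent RNA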
T6 sequence (G5EF15 whole entry): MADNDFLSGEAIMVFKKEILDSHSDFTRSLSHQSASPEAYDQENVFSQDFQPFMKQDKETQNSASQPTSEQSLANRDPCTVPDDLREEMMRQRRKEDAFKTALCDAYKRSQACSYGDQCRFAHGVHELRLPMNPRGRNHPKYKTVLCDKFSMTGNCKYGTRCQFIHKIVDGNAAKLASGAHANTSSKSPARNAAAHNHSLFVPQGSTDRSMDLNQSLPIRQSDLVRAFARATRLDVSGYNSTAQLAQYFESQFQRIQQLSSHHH

[19] = target: T7, Zinc finger protein mex-5 (Caenorhabditis elegans, UniProt Q9XUB2); assay: MEX-5/TCR-2 RNA interaction inhibitors, dose response, biochemical, C. elegans, fluorescence polarization (AID 1960)
T7 sequence (Q9XUB2 whole entry): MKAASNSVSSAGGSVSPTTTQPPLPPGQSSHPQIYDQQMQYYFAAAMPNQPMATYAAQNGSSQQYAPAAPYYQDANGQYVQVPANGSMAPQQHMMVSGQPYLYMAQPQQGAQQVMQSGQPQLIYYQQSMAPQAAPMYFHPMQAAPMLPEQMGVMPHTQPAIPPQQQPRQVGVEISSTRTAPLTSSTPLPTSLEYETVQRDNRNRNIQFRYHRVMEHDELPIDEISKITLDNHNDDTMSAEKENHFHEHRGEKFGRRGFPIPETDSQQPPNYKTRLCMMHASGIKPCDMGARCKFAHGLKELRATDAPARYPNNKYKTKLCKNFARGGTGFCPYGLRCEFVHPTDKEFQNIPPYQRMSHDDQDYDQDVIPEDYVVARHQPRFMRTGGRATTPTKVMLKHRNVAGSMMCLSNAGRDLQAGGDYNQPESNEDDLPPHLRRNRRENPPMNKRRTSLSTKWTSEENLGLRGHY

Cc1cccc(C)c1N=Nc1c(C)cc(O)cc1C
AC50 [1]: 5.46 µM (active)
AC50 [2]: 8.38 µM (active)
AC50 [3]: > 20 µM (inactive)

CCCCCOC(=O)c1c(N)n(CCOC)c2nc3ccccc3nc12
AC50 [3]: 15.7 µM (active)

Cc1ccc(S(=O)(=O)N2CCCCC2)cc1NC(=S)NC(=O)c1ccco1
IC50 [4]: > 66 µM (inactive)
IC50 [5]: > 66 µM (inactive)

O=C(Cc1ccc(Br)cc1)N1CCN(c2ccccn2)CC1
IC50 [4]: > 66 µM (inactive)
IC50 [5]: > 66 µM (inactive)

CCCc1cc(O)nc(SCC(=O)Nc2cc3c(cc2C(C)=O)OCO3)n1
IC50 [6]: > 100 µM (active)

COc1cccc(NC(=O)CN(C)C(=O)CSC(=S)N2CCCC2)c1
IC50 [4]: > 66 µM (inactive)
IC50 [5]: > 66 µM (inactive)

c1ccc(P(c2ccccn2)c2ccccn2)cc1
IC50 [4]: > 66 µM (inactive)
IC50 [5]: > 66 µM (inactive)

CC1(c2ccc3noc(-c4ccccc4)c3c2)OCCO1
IC50 [6]: > 100 µM (active)

O=C(CSc1nc2c(c(=O)n1-c1ccc(Br)cc1)SCC2)NCc1ccco1
AC50 [7]: 43 µM (active)

COc1ccc(C(=O)NC(=S)NCc2cccnc2)cc1[N+](=O)[O-]
IC50 [4]: > 66 µM (inactive)
IC50 [5]: > 66 µM (inactive)

CCNC(=O)CC1C(=O)N(c2ccc(C)cc2)C(=O)N1CCc1ccc(OC)c(OC)c1 (centres undefined)
IC50 [6]: > 100 µM (active)

O=C(Oc1ccccc1)c1cc(O)c(O)c(O)c1
AC50 [3]: 4.01 µM (active)

O=C(/C=C/c1ccco1)Oc1cc(Br)cc(/C=N/NC(=O)c2ccccc2O)c1
EC50 [8]: 2.62 µM (active)
EC50 (cells [9]): 8.58 µM (active)
EC50 (Streptococcus): 5.62 µM (active)
EC50 (cells [10]): 15.2 µM (active)
EC50 [11]: 1.49 µM (active)
EC50 [12]: 7.54 µM (active)
EC50 [13]: > 160 µM (inactive)
AC50 (HEK293): 5.21 µM (active)
EC50 [14]: 5.69 µM (active)

Nc1ccc(Nc2ccncc2)cc1
IC50 [15]: 247 µM (active)
AC50 [16]: 16.9 µM (active)

CCc1c(C2CC2)ncn1Cc1cccc(-c2ccccc2)c1
AC50 [16]: 24.5 µM (active)

Cc1cc(N/N=C/c2ccc(O)cc2)c2cccc(C)c2n1
AC50 [16]: 2.56 µM (active)

COc1cc(/C=N/N=C2/C(=O)Nc3ccccc32)cc(OC)c1O
IC50 [15]: 50.9 µM (active)
IC50 (Large T antigen): 12.4 µM (active)
AC50 [3]: > 20 µM (inactive)
EC50 [17]: > 195 µM (not active)

CN(C)c1ccc2nc3ccc(=[N+](C)C)cc-3sc2c1 [METHYLENE BLUE ANHYDROUS]
EC50 [18]: 187 µM (active)
AC50 [16]: 0.936 µM (active)
EC50 [19]: 114 µM (active)
